PubChem BioAssay (NCI)
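How tested: cells in 96-well plates exposed to compound for 48 hours at five concentrations. TGI: total growth inhibition.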

Experiments:
Assay in all cases: DTP human tumour cell line panel, 48 h
SN12C renal = test system: SN12C renal
TK-10 renal = test system: TK-10 renal
KM12 colon = test system: KM12 colon
MOLT-4 leukemia = test system: MOLT-4 leukemia
M19-MEL melanoma = test system: M19-MEL melanoma
DMS 114 small cell lung = test system: DMS 114 small cell lung
RXF-631 renal = test system: RXF-631 renal
SNB-75 CNS = test system: SNB-75 CNS
SK-MEL-5 melanoma = test system: SK-MEL-5 melanoma
K-562 leukemia = test system: K-562 leukemia
OVCAR-3 ovarian = test system: OVCAR-3 ovarian
DLD-1 colon = test system: DLD-1 colon
NCI-H522 lung = test system: NCI-H522 lung
LOX IMVI melanoma = test system: LOX IMVI melanoma
HL-60(TB) leukemia = test system: HL-60(TB) leukemia
HOP-62 NSCLC = test system: HOP-62 NSCLC
EKVX NSCLC = test system: EKVX NSCLC
NCI-H23 lung = test system: NCI-H23 lung
SK-OV-3 ovarian = test system: SK-OV-3 ovarian
OVCAR-8 ovarian = test system: OVCAR-8 ovarian
NCI-H460 lung = test system: NCI-H460 lung
UO-31 renal = test system: UO-31 renal
SK-MEL-28 melanoma = test system: SK-MEL-28 melanoma
SNB-19 CNS = test system: SNB-19 CNS
SK-MEL-2 melanoma = test system: SK-MEL-2 melanoma
NCI-H226 lung = test system: NCI-H226 lung
CAKI-1 renal = test system: CAKI-1 renal
CCRF-CEM leukemia = test system: CCRF-CEM leukemia
MALME-3M melanoma = test system: MALME-3M melanoma
ACHN renal = test system: ACHN renal
IGROV1 ovarian = test system: IGROV1 ovarian
RPMI-8226 leukemia = test system: RPMI-8226 leukemia
UACC-62 melanoma = test system: UACC-62 melanoma
786-0 renal = test system: 786-0 renal
RXF 393 renal = test system: RXF 393 renal
KM20L2 colon = test system: KM20L2 colon
HCC-2998 colon = test system: HCC-2998 colon
OVCAR-4 ovarian = test system: OVCAR-4 ovarian
M14 melanoma = test system: M14 melanoma
OVCAR-5 ovarian = test system: OVCAR-5 ovarian
SNB-78 CNS = test system: SNB-78 CNS
U251 CNS = test system: U251 CNS
A498 renal = test system: A498 renal
UACC-257 melanoma = test system: UACC-257 melanoma
DMS 273 small cell lung = test system: DMS 273 small cell lung
HCT-116 colon = test system: HCT-116 colon
MCF7 breast = test system: MCF7 breast
HT29 colon = test system: HT29 colon
HOP-92 NSCLC = test system: HOP-92 NSCLC
HCT-15 colon = test system: HCT-15 colon
SW-620 colon = test system: SW-620 colon
NCI/ADR-RES ovarian = test system: NCI/ADR-RES ovarian
SF-295 CNS = test system: SF-295 CNS
SF-268 CNS = test system: SF-268 CNS
SR leukemia = test system: SR leukemia
COLO 205 colon = test system: COLO 205 colon
LXFL 529 NSCLC = test system: LXFL 529 NSCLC
SF-539 CNS = test system: SF-539 CNS
SN12K1 renal = test system: SN12K1 renal
HOP-18 NSCLC = test system: HOP-18 NSCLC
A549 NSCLC = test system: A549 NSCLC
XF 498 CNS = test system: XF 498 CNS

`C/C=C/C1=C(Cl)C(=O)[C@@H](Cl)[C@@]1(O)C(=O)OC` showed a TGI (SN12C renal) of 7.15 µM, a TGI (TK-10 renal) of 9.14 µM and a TGI (KM12 colon) of 22.2 µM. It also gave a TGI (MOLT-4 leukemia) of 12.9 µM, a TGI (M19-MEL melanoma) of 10.1 µM and a TGI (DMS 114 small cell lung) of over 34.4 µM. It also gave a TGI (RXF-631 renal) of 43.9 µM, a TGI (SNB-75 CNS) of 32.8 µM and a TGI (SK-MEL-5 melanoma) of 16.5 µM. The TGI (K-562 leukemia) was 14.4 µM, the TGI (OVCAR-3 ovarian) was 6.94 µM and the TGI (DLD-1 colon) was 9.35 µM. It also gave a TGI (NCI-H522 lung) of 2520 nM, a TGI (LOX IMVI melanoma) of 6.37 µM and a TGI (HL-60(TB) leukemia) of 4.28 µM. The TGI (HOP-62 NSCLC) was 2420 nM, the TGI (EKVX NSCLC) was 9.27 µM and the TGI (NCI-H23 lung) was 10.1 µM. The TGI (SK-OV-3 ovarian) was 30.6 µM, the TGI (OVCAR-8 ovarian) was 6.45 µM and the TGI (NCI-H460 lung) was 15.2 µM. For the same compound, the TGI (UO-31 renal) was 10.2 µM, the TGI (SK-MEL-28 melanoma) was 14.2 µM and the TGI (SNB-19 CNS) was 19.9 µM. It also gave a TGI (SK-MEL-2 melanoma) of 7.56 µM, a TGI (NCI-H226 lung) of 15.7 µM and a TGI (CAKI-1 renal) of 8.4 µM. For the same compound, the TGI (CCRF-CEM leukemia) was over 24 µM, the TGI (MALME-3M melanoma) was 6.21 µM and the TGI (ACHN renal) was 6.59 µM. For the same compound, the TGI (IGROV1 ovarian) was 14.1 µM, the TGI (RPMI-8226 leukemia) was 29 µM and the TGI (UACC-62 melanoma) was 4.18 µM. For the same compound, the TGI (786-0 renal) was 18 µM, the TGI (RXF 393 renal) was 4.76 µM and the TGI (KM20L2 colon) was 15.9 µM. For the same compound, the TGI (HCC-2998 colon) was 8.84 µM, the TGI (OVCAR-4 ovarian) was 5.59 µM and the TGI (M14 melanoma) was 11.9 µM. The TGI (OVCAR-5 ovarian) was 24.5 µM, the TGI (SNB-78 CNS) was 39.4 µM and the TGI (U251 CNS) was 18.8 µM. The TGI (A498 renal) was 14.3 µM, the TGI (UACC-257 melanoma) was 3.5 µM and the TGI (DMS 273 small cell lung) was 9.61 µM. It also gave a TGI (HCT-116 colon) of 11.7 µM, a TGI (MCF7 breast) of 3.89 µM and a TGI (HT29 colon) of 15.4 µM. The TGI (HOP-92 NSCLC) was 6.22 µM, the TGI (HCT-15 colon) was 4.43 µM and the TGI (SW-620 colon) was 3.1 µM. It also gave a TGI (NCI/ADR-RES ovarian) of 6.23 µM, a TGI (SF-295 CNS) of 27.9 µM and a TGI (SF-268 CNS) of 24.2 µM. It also gave a TGI (SR leukemia) of 21.7 µM, a TGI (COLO 205 colon) of 3.22 µM and a TGI (LXFL 529 NSCLC) of 7.41 µM. It also gave a TGI (SF-539 CNS) of 5.45 µM, a TGI (SN12K1 renal) of 4.48 µM and a TGI (HOP-18 NSCLC) of 11 µM. The TGI (A549 NSCLC) was 24.3 µM and the TGI (XF 498 CNS) was 13.3 µM.
